Reference: US20080262097A1, “Formulations” (priority 2005, published 2008)
≈ marks a conversion by molar mass, not a printed value. Where two headings read alike, the source gives them in different places.

How the values were obtained:
[1] = tested on: S. aureus CPHL EMRSA 15; experiment: MIC assay; assay type: cell-based; conditions: Staphylococcus aureus
Experimental: (§1) Other staphylococcal strains were also tested, as described in Example 5 below. These included certain antibiotic resistant staphylococci, such as the methicillin resistant S. aureus (MRSA) strains EMRSA-15 and EMRSA-16, both available from the Central Public Health Laboratory (CPHL), Colindale, UK. These strains are resistant not only to all beta-lactams but also to a number of other antibiotics in clinical use, making them a serious threat to human health. They are also responsible for the majority (>95%) of hospital-acquired MRSA infections in the UK.
(§2) The staphylococci and enterococci were cultured and maintained on Mueller-Hinton Medium (agar and broth) at pH 7.2; they were incubated aerobically at 37° C. for 24 hours.
(§3) This is a standard international method for quantitatively assessing the antimicrobial activity of a compound in a liquid medium. The method used a 96-well microtitre plate, capable of holding about 200 μl of liquid per well. […] The culture media were as described above for the relevant test organisms.
(§4) The wells were inoculated with a liquid suspension of freshly grown micro-organism and incubated under the conditions described above. After incubation, the microtitre plate was examined visually (with the aid of a light box) for cell pellets in and/or opaque wells, which would indicate microbial growth. The MIC value was recorded as the lowest concentration of test compound required to inhibit microbial growth, ie, the lowest concentration for which the liquid in the well remained clear.
(§5) The assays were conducted in duplicate and included both negative (culture medium only) and positive (culture medium, diluting solvent and inoculum) controls.

[2] = tested on: S. aureus CPHL EMRSA 16; experiment: MIC assay; assay type: cell-based; conditions: Staphylococcus aureus
Experimental: as §1, §2, §3, §4, §5

[3] = tested on: S. aureus ATCC 12600-U; experiment: MIC assay; assay type: cell-based; conditions: Staphylococcus aureus, ATCC12600
Experimental: as §2, §3, §4, §5

[4] = tested on: Staphylococcus simulans ATCC 27848; experiment: MIC assay; assay type: cell-based; conditions: ATCC27848
Experimental: as §2, §3, §4, §5

[5] = tested on: S. aureus ATCC 12605; experiment: MIC assay; assay type: cell-based; conditions: Staphylococcus aureus, ATCC12605
Experimental: as §2, §3, §4, §5

[6] = tested on: S. aureus CPHL VISA Mu50; experiment: MIC assay; assay type: cell-based; conditions: Staphylococcus aureus
Experimental: as §2, §3, §4, §5

[7] = tested on: Staphylococcus hominis ATCC 27844; experiment: MIC assay; assay type: cell-based; conditions: ATCC27844
Experimental: as §2, §3, §4, §5

[8] = tested on: S. aureus ATCC 12607; experiment: MIC assay; assay type: cell-based; conditions: Staphylococcus aureus, ATCC12607
Experimental: as §2, §3, §4, §5

[9] = tested on: Staphylococcus auricularis ATCC 33753; experiment: MIC assay; assay type: cell-based; conditions: ATCC33753
Experimental: as §2, §3, §4, §5

[10] = tested on: P. acnes PRP-010; experiment: Disc diffusion assay (DDA); assay type: cell-based, Propionibacterium acnes; conditions: zone diameter, 200 μg per disc
Experimental: (§6) Other propionibacterial strains were also tested, as described in Example 8 below. These included certain antibiotic resistant propionibacteria, such as the two P. acnes strains PRP-010 and PRP-053 which are resistant respectively to macrolides-lincosamides-streptogramins-ketolides (MLSK) and to macrolides-lincosamides-streptogramins (MLS) and tetracycline—in other words, PRP-010 is resistant to erythromycin and clindamycin, and […] to erythromycin, clindamycin and tetracycline.
(§7) The Propionibacterium spp organisms were cultured and maintained on Wilkins-Chalgren Anaerobe Medium (agar and broth) at pH 6.0; cultures were incubated anaerobically at 37° C. for 72 hours.
(§8) A sterile paper disc was impregnated with a sample of the test compound and a minimum of 30 minutes allowed for the solvents to evaporate as far as possible. The disc was then placed on an agar plate onto which the test micro-organism had been inoculated. The plate was then incubated under the conditions described above, following which it was examined visually for signs of bacterial growth. If the test compound had antimicrobial activity, a circular zone of no growth would be obtained around the disc. The diameter of this zone of “inhibition” was measured using a ProtoCOL™ automated zone sizer (Synbiosis, Cambridge, UK). In general, a greater diameter and/or area of the zone of inhibition indicates a greater antimicrobial activity in the relevant test compound, although other factors such as test compound mobility through the agar gel may also influence the result.
(§9) The area of the zone of inhibition was calculated from the measured zone diameter (D) using the formula π(D/2)^2.

[11] = tested on: P. acnes PRP-053; experiment: Disc diffusion assay (DDA); assay type: cell-based, Propionibacterium acnes; conditions: zone diameter, 200 μg per disc
Experimental: as §6, §7, §8, §9

[12] = tested on: P. acnes PRP-046; experiment: MIC assay; assay type: cell-based, Propionibacterium acnes; conditions: Cutibacterium acnes, PRP046; P. acnes PRP-046 (resistance None)
Experimental: as §7, §3, §4, §5

[13] = tested on: P. acnes PRP-023; experiment: MIC assay; assay type: cell-based, Propionibacterium acnes; conditions: Cutibacterium acnes, PRP023; P. acnes PRP-023 (resistance MLSK)
Experimental: as §7, §3, §4, §5

[14] = tested on: P. acnes PRP-026; experiment: MIC assay; assay type: cell-based, Propionibacterium acnes; conditions: Cutibacterium acnes, PRP026; P. acnes PRP-026 (resistance MLS)
Experimental: as §7, §3, §4, §5

[15] = tested on: P. acnes PRP-002; experiment: MIC assay; assay type: cell-based, Propionibacterium acnes; conditions: Cutibacterium acnes, PRP002; P. acnes PRP-002 (resistance Tet/MLS)
Experimental: as §7, §3, §4, §5

[16] = tested on: P. acnes PRP-017; experiment: MIC assay; assay type: cell-based, Propionibacterium acnes; conditions: Cutibacterium acnes, PRP017; P. acnes PRP-017 (resistance MLS)
Experimental: as §7, §3, §4, §5

[17] = tested on: P. acnes PRP-101; experiment: MIC assay; assay type: cell-based, Propionibacterium acnes; conditions: Cutibacterium acnes, PRP101; P. acnes PRP-101 (resistance Tet/MLS)
Experimental: as §7, §3, §4, §5

[18] = tested on: P. acnes PRP-059; experiment: MIC assay; assay type: cell-based, Propionibacterium acnes; conditions: Cutibacterium acnes, PRP059; P. acnes PRP-059 (resistance MLS)
Experimental: as §7, §3, §4, §5

[19] = tested on: P. acnes PRP-004; experiment: MIC assay; assay type: cell-based, Propionibacterium acnes; conditions: Cutibacterium acnes, PRP004; P. acnes PRP-004 (resistance Tet)
Experimental: as §7, §3, §4, §5

[20] = tested on: P. acnes PRP-003; experiment: MIC assay; assay type: cell-based, Propionibacterium acnes; conditions: Cutibacterium acnes, PRP003; P. acnes PRP-003 (resistance Tet)
Experimental: as §7, §3, §4, §5

[21] = tested on: P. acnes PRP-007; experiment: MIC assay; assay type: cell-based, Propionibacterium acnes; conditions: Cutibacterium acnes, PRP007; P. acnes PRP-007 (resistance Clin)
Experimental: as §7, §3, §4, §5

| SMILES | MIC [1] [µg/mL] | MIC [2] [µg/mL] | MIC [6] [µg/mL] | DDA [10] | DDA [11] | MIC [12] [µg/mL] | MIC [13] [µg/mL] | MIC [14] [µg/mL] | MIC [15] [µg/mL] | MIC [16] [µg/mL] | MIC [17] [µg/mL] | MIC [18] [µg/mL] | MIC [19] [µg/mL] | MIC [20] [µg/mL] | MIC [21] [µg/mL] | also measured |
| --- | --- | --- | --- | --- | --- | --- | --- | --- | --- | --- | --- | --- | --- | --- | --- | --- |
| O=C(OOC(=O)c1ccccc1)c1ccccc1 [benzoyl peroxide] | 125 (≈ 516 µM) | 125 (≈ 516 µM) | 125 (≈ 516 µM) | 30.39 (±0.82) mm | 29.72 (±0.48) mm | 31.2 (≈ 129 µM) | 31.2 (≈ 129 µM) | 15.6 (≈ 64.4 µM) | 15.6 (≈ 64.4 µM) | 31.2 (≈ 129 µM) | 15.6 (≈ 64.4 µM) | 62.5 (≈ 258 µM) | 7.8 (≈ 32.2 µM) | 31.2 (≈ 129 µM) | 31.2 (≈ 129 µM) | MIC ([3]; S. aureus ATCC 12600-U, read-out: MIC): 250 µg/mL (≈ 1030 µM); MIC ([4]; Staphylococcus simulans ATCC 27848, read-out: MIC): > 250 µg/mL; MIC ([5]; S. aureus ATCC 12605, read-out: MIC): 250 µg/mL (≈ 1030 µM); MIC ([7]; Staphylococcus hominis ATCC 27844, read-out: MIC): 250 µg/mL (≈ 1030 µM); MIC ([8]; S. aureus ATCC 12607, read-out: MIC): 250 µg/mL (≈ 1030 µM); MIC ([9]; Staphylococcus auricularis): 15.6 µg/mL (≈ 64.4 µM) |
| CC(C)(C)c1cc(O)ccc1O [TBHQ, t-butyl hydroquinone] | 3.9 (≈ 23.5 µM) | 3.9 (≈ 23.5 µM) | 3.9 (≈ 23.5 µM) | 18.71 (±0.18) mm | 23.49 (±1.44) mm | 1.95 (≈ 11.7 µM) | 3.9 (≈ 23.5 µM) | 3.9 (≈ 23.5 µM) | 3.9 (≈ 23.5 µM) | 3.9 (≈ 23.5 µM) | 3.9 (≈ 23.5 µM) | 3.9 (≈ 23.5 µM) | 1.95 (≈ 11.7 µM) | 7.8 (≈ 46.9 µM) | 3.9 (≈ 23.5 µM) | MIC [3]: 3.9 µg/mL (≈ 23.5 µM); MIC ([4]; Staphylococcus simulans): 7.8 µg/mL (≈ 46.9 µM); MIC [5]: 3.9 µg/mL (≈ 23.5 µM); MIC ([7]; Staphylococcus hominis): 1.95 µg/mL (≈ 11.7 µM); MIC [8]: 3.9 µg/mL (≈ 23.5 µM); MIC ([9]; Staphylococcus auricularis ATCC 33753, read-out: MIC): 0.98 µg/mL (≈ 5.9 µM) |
